Experimental data from PubChem BioAssay AID1259411 (Chemical Carcinogenesis Research Information System (CCRIS), 2018).
Active and inactive are the calls of the source. How the calls were made is not given here.

Tested on: rodent carcinogenicity bioassays, tumor incidence
Assay: CCRIS carcinogenicity studies
Method in brief: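 Archive of carcinogenicity, mutagenicity, tumor promotion and tumor inhibition results drawn from journals, NCI reports and other sources, expert-reviewed; covers 1985-2011 and is no longer updated.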

O=C(c1ccccc1)C(O)c1ccccc1 (stereo not drawn)
carcinogen call (Species: MOUSE, Strain/Sex: B6C3F1/FEMALE, Route: ORAL, Dose: 0, 2500, 5000 PPM IN DIET, Dose: 0, 2500, 5000 PPM IN DIET): inactive; negative | carcinogen call (Species: MOUSE, Strain/Sex: B6C3F1/MALE, Route: ORAL, Dose: 0, 2500, 5000 PPM IN DIET, Dose: 0, 2500, 5000 PPM IN DIET): inactive; negative | carcinogen call (Species: RAT, Strain/Sex: F344/FEMALE, Route: ORAL, Dose: 0, 250, 500 PPM IN DIET, Dose: 0, 250, 500 PPM IN DIET): inactive; negative | carcinogen call (Species: RAT, Strain/Sex: F344/MALE, Route: ORAL, Dose: 0, 125, 250 PPM IN DIET, Dose: 0, 125, 250 PPM IN DIET): inactive; negative

CC[C@H]1OC(=O)[C@H](C)[C@@H](O[C@H]2C[C@@](C)(OC)[C@@H](O)[C@H](C)O2)[C@H](C)[C@@H](O[C@@H]2O[C@H](C)C[C@H](N(C)C)[C@H]2O)[C@](C)(O)C[C@@H](C)C(=O)[C@H](C)[C@@H](O)[C@]1(C)O
carcinogen call (Species: MOUSE, Strain/Sex: B6C3F1/FEMALE, Route: ORAL, Dose: 0, 2500, 5000 PPM IN FEED FOR 103 WK (STUDY DURATION: 104 WK), Dose: 0, 2500, 5000 PPM IN FEED FOR 103 WK (STUDY DURATION: 104 WK)): inactive; negative | carcinogen call (Species: MOUSE, Strain/Sex: B6C3F1/MALE, Route: ORAL, Dose: 0, 2500, 5000 PPM IN FEED FOR 103 WK (STUDY DURATION: 104 WK), Dose: 0, 2500, 5000 PPM IN FEED FOR 103 WK (STUDY DURATION: 104 WK)): inactive; negative | carcinogen call (Species: RAT, Strain/Sex: F344/FEMALE, Route: ORAL, Dose: 0, 5000, 10000 PPM IN FEED FOR 103 WK (STUDY DURATION: 104 WK), Dose: 0, 5000, 10000 PPM IN FEED FOR 103 WK (STUDY DURATION: 104 WK)): inactive; negative | carcinogen call (Species: RAT, Strain/Sex: F344/MALE, Route: ORAL, Dose: 0, 5000, 10000 PPM IN FEED FOR 103 WK (STUDY DURATION: 104 WK), Dose: 0, 5000, 10000 PPM IN FEED FOR 103 WK (STUDY DURATION: 104 WK)): inactive; negative

CNC[C@H](O)c1cccc(O)c1
carcinogen call (Species: MOUSE, Strain/Sex: B6C3F1/FEMALE, Route: ORAL, Dose: 0, 1250, 2500 PPM IN DIET FOR 103 WK, Dose: 0, 1250, 2500 PPM IN DIET FOR 103 WK): inactive; negative | carcinogen call (Species: MOUSE, Strain/Sex: B6C3F1/MALE, Route: ORAL, Dose: 0, 1250, 2500 PPM IN DIET FOR 103 WK, Dose: 0, 1250, 2500 PPM IN DIET FOR 103 WK): inactive; negative | carcinogen call (Species: RAT, Strain/Sex: F344/FEMALE, Route: ORAL, Dose: 0, 620, 1250 PPM IN DIET FOR 103 WK, Dose: 0, 620, 1250 PPM IN DIET FOR 103 WK): inactive; negative | carcinogen call (Species: RAT, Strain/Sex: F344/MALE, Route: ORAL, Dose: 0, 620, 1250 PPM IN DIET FOR 103 WK, Dose: 0, 620, 1250 PPM IN DIET FOR 103 WK): inactive; negative

O=NN(CCO)CCO
carcinogen call (Species: HAMSTER, Route: SUBCUTANEOUS, Tumor Site: Type of Lesion: LIVER, INJECTION SITE, NASAL CAVITY, TRACHEA, Tumor Site: Type of Lesion: LIVER, INJECTION SITE, NASAL CAVITY, TRACHEA): active; positive | carcinogen call (Species: HAMSTER, Strain/Sex: SYRIAN/FEMALE, Route: SUBCUTANEOUS, Dose: 0, 250, 500, 1000 MG/KG IN SALINE 1/WK FOR DURATION OF STUDY (STUDY DURATION: 41-59 WK), Dose: 0, 250, 500, 1000 MG/KG IN SALINE 1/WK FOR DURATION OF STUDY (STUDY DURATION: 41-59 WK), Tumor Site: Type of Lesion: NASAL CAVITY: ADENOCARCINOMA, TRACHEA: PAPILLARY POLYP, LARYNX: PAPILLARY POLYP, Tumor Site: Type of Lesion: NASAL CAVITY: ADENOCARCINOMA, TRACHEA: PAPILLARY POLYP, LARYNX: PAPILLARY POLYP): active; positive | carcinogen call (Species: HAMSTER, Strain/Sex: SYRIAN/MALE, Route: SUBCUTANEOUS, Dose: 0, 250, 500, 1000 MG/KG IN SALINE 1/WK FOR DURATION OF STUDY (STUDY DURATION: 45-54 WK), Dose: 0, 250, 500, 1000 MG/KG IN SALINE 1/WK FOR DURATION OF STUDY (STUDY DURATION: 45-54 WK), Tumor Site: Type of Lesion: NASAL CAVITY: ADENOCARCINOMA, TRACHEA: PAPILLARY POLYP, LARYNX: PAPILLARY POLYP, Tumor Site: Type of Lesion: NASAL CAVITY: ADENOCARCINOMA, TRACHEA: PAPILLARY POLYP, LARYNX: PAPILLARY POLYP): active; positive | carcinogen call (Species: MOUSE, Strain/Sex: STRAIN-A/FEMALE, Route: ORAL, Dose: 0, 0.2 UMOL/ML IN DRINKING WATER FOR 10 WK (TOTAL DOSE: 0, 55 UMOL) FOLLOWED BY TAP WATER FOR 20 WK (STUDY DURATION: 30, Tumor Site: Type of Lesion: LUNG: TUMORS): active; positive | carcinogen call (Species: RAT, Route: ORAL, Tumor Site: Type of Lesion: KIDNEY, LIVER): active; positive | carcinogen call (Species: RAT, Strain/Sex: F344/FEMALE, Route: ORAL, Dose: 0, 150 MG/L IN DRINKING WATER 5 D/WK FOR 50 WK (TOTAL DOSE: 0; 5.6 MMOL) (STUDY DURATION: 124 WK), Dose: 0, 150 MG/L IN DRINKING WATER 5 D/WK FOR 50 WK (TOTAL DOSE: 0; 5.6 MMOL) (STUDY DURATION: 124 WK), Tumor Site: Type of Lesion: LIVER: HEPATOCELLULAR TUMOR): active; positive

CC/C(=C(\c1ccccc1)c1ccc(OCCN(C)C)cc1)c1ccccc1
carcinogen call (Species: MONKEY, Strain/Sex: CYNOMOLGUS/FEMALE, Route: ORAL, Dose: 0, 20 MG/WOMAN/D HUMAN DOSE EQUIVALENT IN DIET FOR 36 MONTHS BEGINNING 3 MONTHS POST BILATERAL OVARIECTOMY (STUDY DURATI): inactive; negative | carcinogen call (Species: MOUSE, Strain/Sex: CD-1/FEMALE, Route: SUBCUTANEOUS, Dose: 0, 1, 2, 5, 10, 25, 50 UG/D ON DAYS 1-5 OF LIFE (STUDY DURATION: 17 MO), Dose: 0, 1, 2, 5, 10, 25, 50 UG/D ON DAYS 1-5 OF LIFE (STUDY DURATION: 17 MO), Tumor Site: Type of Lesion: UTERUS: ADENOCARCINOMA): active; positive | carcinogen call (Species: Mouse, Strain/Sex: CD-1/Female (30/group), Route: Subcutaneous, Dose: 0, 10 ug as tamoxifen in peanut oil, dosed on days 1-5 of life and retained for 1.5 (4 animals), 3 (4 animals), 6 (4 ani, Dose: 0, 10 ug as tamoxifen in peanut oil, dosed on days 1-5 of life and retained for 1.5 (4 animals), 3 (4 animals), 6 (4 ani, Tumor Site: Type of Lesion: Uterus and ovaries examined): inactive; negative | carcinogen call (Species: Mouse, Strain/Sex: CD-1/Female (35/group), Route: Subcutaneous, Dose: 0, 5, 10, 25, 50 ug as tamoxifen in peanut oil, dosed on days 1-5 of life and retained for 3 (4 animals), 6 (4 animals),, Dose: 0, 5, 10, 25, 50 ug as tamoxifen in peanut oil, dosed on days 1-5 of life and retained for 3 (4 animals), 6 (4 animals),, Tumor Site: Type of Lesion: Uterus and ovaries examined): inactive; negative (nonneoplastic changes were observed) | carcinogen call (Species: RAT, Strain/Sex: ALDERLEY PARK/FEMALE, Route: GAVAGE, Dose: 0, 5, 20, 35 MG/KG/D IN 0.5% HYDROXYPROPYL METHYLCELLULOSE FOR 2 YR (STUDY DURATION: 2 YR), Dose: 0, 5, 20, 35 MG/KG/D IN 0.5% HYDROXYPROPYL METHYLCELLULOSE FOR 2 YR (STUDY DURATION: 2 YR), Tumor Site: Type of Lesion: LIVER: HEPATOCELLULAR ADENOMA, HEPATOCELLULAR CARCINOMA, HEPATO/CHOLANGIOCELLULAR CARCINOMA): active; positive | carcinogen call (Species: RAT, Strain/Sex: ALDERLEY PARK/MALE, Route: GAVAGE, Dose: 0, 5, 20, 35 MG/KG/D IN 0.5% HYDROXYPROPYL METHYLCELLULOSE FOR 2 YR (STUDY DURATION: 2 YR), Dose: 0, 5, 20, 35 MG/KG/D IN 0.5% HYDROXYPROPYL METHYLCELLULOSE FOR 2 YR (STUDY DURATION: 2 YR), Tumor Site: Type of Lesion: LIVER: HEPATOCELLULAR ADENOMA, HEPATOCELLULAR CARCINOMA, HEPATO/CHOLANGIOCELLULAR CARCINOMA): active; positive | carcinogen call (Species: RAT, Strain/Sex: SPRAGUE-DAWLEY/FEMALE, Route: GAVAGE, Dose: 0, 2.8, 11.3, 45.2 MG/KG/D IN CARBOXYMETHYL-CELLULOSE FOR UP TO 1 YR WITH 2 RECOVERY PERIODS, 4 WK OF RECOVERY AFTER 6 M, Dose: 0, 2.8, 11.3, 45.2 MG/KG/D IN CARBOXYMETHYL-CELLULOSE FOR UP TO 1 YR WITH 2 RECOVERY PERIODS, 4 WK OF RECOVERY AFTER 6 M, Tumor Site: Type of Lesion: LIVER: ADENOMA, CARCINOMA): active; positive | carcinogen call (Species: RAT, Strain/Sex: SPRAGUE-DAWLEY/FEMALE, Route: GAVAGE, Dose: 0, 11.3, 22.6 MG/KG IN 0.5% CARBOXYMETHYLCELLULOSE 1/D 7 D/WK FOR UP TO 12 MO (STUDY DURATION: 15 MO), Dose: 0, 11.3, 22.6 MG/KG IN 0.5% CARBOXYMETHYLCELLULOSE 1/D 7 D/WK FOR UP TO 12 MO (STUDY DURATION: 15 MO), Tumor Site: Type of Lesion: LIVER: HEPATOCELLULAR ADENOMA, HEPATOCELLULAR CARCINOMA): active; positive | carcinogen call (Species: RAT, Strain/Sex: WISTAR/FEMALE, Route: ORAL, Dose: 0, 1 MG/KG BW/D IN PEANUT OIL/LECITHIN/CONDENSED MILK MIXTURE ON DAYS 2-5 OF AGE (STUDY DURATION: 35 MONTHS), Tumor Site: Type of Lesion: UTERUS: ADENOCARCINOMA, VAGINA/CERVIX: SQUAMOUS CELL CARCINOMA): active; positive | carcinogen call (Species: RAT, Strain/Sex: WISTAR/FEMALE, Route: ORAL, Dose: 0, 420 PPM IN DIET FOR 3 MO (STUDY DURATION: LIFETIME), Tumor Site: Type of Lesion: LIVER: TUMOR): active; positive
